# Data taken from patent US4913905A, “Transdermal therapeutic systems for active ingredient combinations” (priority 1987, dated 1990).
# Legend:
# [1] = Therapeutically effective daily dose (oral / transdermal); format: in vivo; details: estimated values
# [2] = cited from earlier work
# [3] = In vitro flux through pig skin in a Franz diffusion cell (saturated ethanolic solution or system of Example 1); details: for skin permeation in vitro, alcoholic solution: saturated ethanolic solution
# Experimental: The flux of progesterone and synthetic progestrone derivatives is measured in vitro as follows:
# After 24 hours, an aliquot of the aqueous acceptor solution from the acceptor compartment is examined for content of the relevant progesterone derivative and, from this, the flux in μg cm^2 ×h is calculated.
# endometrium carcinomas = details: following treatment; numerous studies in the USA; cited from earlier work
# [4] = vehicle of DE-A No. 3 205 258, e.g. ethanol gel; systems of acceptable size; cited from earlier work
# [5] = cited from earlier work; remark: listed apart in the source
SMILES,"therapeutically effective daily dose, transdermal [1] [mg]","therapeutically effective daily dose, oral [2] [mg]","skin permeation in vitro, alcoholic solution ([3]; pig skin, 24 hours) [μg/cm^2 · h]",further results
C#C[C@]1(O)CC[C@H]2[C@@H]3CCC4=CC(=O)CC[C@@H]4[C@H]3CC[C@@]21CC [d-norgestrel],0.05,0.07 to 0.15,0.028,–
"CCCCC(=O)O[C@H]1CC[C@H]2[C@@H]3CCc4cc(O)ccc4[C@H]3CC[C@]12C [oestradiol valerate, estradiol-17-valerate]",–,–,–,times higher incidence of endometrium carcinomas (endometrium carcinomas): 3.3 to 6 times
CC(=O)[C@H]1CC[C@H]2[C@@H]3CCC4=CC(=O)CC[C@]4(C)[C@H]3CC[C@]12C [progesterone],2,100 to 300,3.0,"amount that passes through the skin for an adequate therapeutic effect [4]: not sufficient; skin permeation in vitro, system according Example 1 ([3]; transdermal therapeutic system according to Example 1, pig skin, 24 hours): 0.073 μg/cm^2 · h"
C#C[C@]1(O)CC[C@H]2[C@@H]3CCC4=CC(=O)CC[C@@H]4[C@H]3CC[C@@]21C [norethisterone],0.2,0.5 to 5,0.024,necessary surface area of system ([3]; estimated values): 350 cm^2
"C#C[C@]1(OC(C)=O)CC[C@H]2[C@@H]3CCC4=CC(=O)CC[C@@H]4[C@H]3CC[C@@]21C [norethisterone acetate, norethisterone-17-acetate]",2,0.5 to 5,–,–
CC(=O)O[C@]1(C(C)=O)CC[C@H]2[C@@H]3C[C@H](C)C4=CC(=O)CC[C@]4(C)[C@H]3CC[C@@]21C [medroxyprogesterone acetate],2,2.5 to 10,–,–
"C[C@]12CC[C@@H]3c4ccc(O)cc4CC[C@H]3[C@@H]1CC[C@@H]2O [oestradiol, 17β-oestradiol]",–,–,–,"times higher incidence of endometrium carcinomas (endometrium carcinomas): 3.3 to 6 times; resorption following oral administration [5]: unsatisfactory; undesirable side-effects ([5]; oral, high dosage, frequent occurrence): nausea, thromboembolism; metabolisation by the liver ([5]; oral): rapid"
